Measured values from PMC7323874, “Vancomycin Resistance Is Overcome by Conjugation of Polycationic Peptides” (Angewandte Chemie (International Ed. in English), 2020).
≈ marks a conversion by molar mass, not a printed value. Like-named read-outs stand apart in the source and are kept apart here.

Assays:
Assay type in all cases: cell-based
A. baumannii SC300007 = experiment: microbe, parasite or virus in culture
Method: (§1) Antimicrobial testing – Microdilution
(§2) Antimicrobial testing was performed according to CLSI and EUCAST guidelines in microdilution.8-10 Therefore, all tested substances as well as controls were dissolved in water in different concentrations and serially diluted in MHB II (cation adjusted) on the 96-well plate. A logarithmic growing, overnight culture of the respective bacterial strain was used and adjusted to a McFarland corresponding to 1 × 10^8 cfu/ml. Afterwards the bacterial suspension was diluted to 1 ×10^6 cfu/ml and loaded on the 96-well polypropylene plates, resulting in a final bacterial concentration of 5 × 10^5 cfu/ml. After an incubation at 35 ± 1 °C for 18-20 hours (re-controlled after 24 hours) the MIC was determined as the lowest concentration without visible growth as described previously.11 For direct comparison of the tested substances, all results were calculated in mg/ml and mol/ml afterwards. […]
(§3) As further control substance, the glycopeptide antibiotic teicoplanin was evaluated. […] Resistance development in S. aureus was determined by passaging bacteria in increasing amounts of vancomycin, FU002 or, as control, fusidic acid. In principle, tubes with twofold dilutions of the compounds in 1 ml Muller Hinton broth were inoculated 1:100 with bacterial suspension. The tubes were then incubated for 24 h at 37 °C under shaking. After each passage, the tube with the highest compound concentration showing bacterial growth was used to inoculate the tubes of the next passage (1:100). The tube with the lowest compound concentration showing no growth was defined as the passage MIC. Passaging was stopped after 8 passages.
(§4) For the validation of possible side effects provoked by the conjugates, the cytotoxic effect of the lead candidate FU002 on human cells was assessed in a colorimetric viability assay. Different human cell types were used including kidney and liver cell lines as well as freshly isolated peripheral blood cells. Cells were seeded into 96-well microtiter plates at 2 x 10^4 cells/well and cultured overnight (18-24 h) in a […]

[1] = tested on: K. pneumoniae ATCC 700603; experiment: microbe, parasite or virus in culture
Method: as §1, §2, §3, §4

[2] = tested on: Staphylococcus aureus USA300 LAC; experiment: microbe, parasite or virus in culture; settings: for MIC: Staphylococcus aureus, MRSA / USA300, 24 h
Method: as §1, §2
Resistance development study
Resistance development in S. aureus was determined by passaging bacteria in increasing amounts of vancomycin, FU002 or, as control, fusidic acid. In principle, tubes with twofold dilutions of the compounds in 1 ml Muller Hinton broth were inoculated 1:100 with bacterial suspension. The tubes were then incubated for 24 h at 37 °C under shaking. After each passage, the tube with the highest compound concentration showing bacterial growth was used to inoculate the tubes of the next passage (1:100). The tube with the lowest compound concentration showing no growth was defined as the passage MIC. Passaging was stopped after 8 passages.
as §4

human erythrocytes = experiment: Hemolysis assay; settings: up to a concentration of 640 µg/ml; 120 min at 37 °C; absorption at 554 nm; 1% Triton X-100 as positive control
Method: For hemolysis studies, blood from four different, fasted men were taken to determine the hemoglobin release. Erythrocytes were purified centrifuging blood at 2500 rpm for 3 min. The remaining pellet was washed with PBS and centrifuged again. This process was repeated until the supernatant remained clear.
For the hemolysis assay, v-bottom plates were used. FU002 was tested in duplicates in three different assays. As positive control, a 1% Triton® in 0.9%-NaCl solution was used.
FU002 was serial diluted on the plate, resulting in 50 µl of a final concentration of 640 µg/ml to 1.25 µg/ml. Every well contained 50 µl of the purified erythrocytes. […] 50 µl of the supernatant were transferred to a flat-bottom plate and absorption was measured at 554 nm.
Hemolysis was calculated as followed: […]
Cobra Auto γ-Counter, (Packard Bioscience, USA) in comparison with standards. The tissue-associated activity was related to the total injected dose (ID) and expressed as a percentage of the total injected dose per gram of tissue (%ID/g). […]
Mice were infected by intravenous application of the bacterial inoculum via the tail vein. […] During infection, mice were scored twice daily and sacrificed at day 4 post infection and livers harvested. […] Significant differences in the CFU of the livers were determined with Kruskal-Wallis test (software: GraphPad Prism 5.0).

| SMILES | MIC (A. baumannii SC300007; Acinetobacter baumannii, SC300007) | MIC ([1]; Klebsiella pneumoniae, ATCC700603) | MIC ([2]; read-out: MIC after 8 passages) | MIC ([2]; read-out: initial MIC) | hemolytic activity (human erythrocytes) | MIC (A. baumannii SC300007; A. baumannii SC300007, median of at least triplicates on two different plates) | MIC ([1]; K. pneumoniae ATCC 700603, median of at least triplicates on two different plates) | MIC after 8 passages ([2]; MRSA USA300 LAC, 8 passages in increasing compound concentrations, 24 h at 37 °C each) | initial MIC ([2]; MRSA USA300 LAC, before passaging, Muller Hinton broth, 24 h, 37 °C) | resistance development ([2]; after eight passages in increasing concentrations) |
| --- | --- | --- | --- | --- | --- | --- | --- | --- | --- | --- |
| CN[C@H](CC(C)C)C(=O)N[C@H]1C(=O)N[C@@H](CC(N)=O)C(=O)N[C@H]2C(=O)N[C@H]3C(=O)N[C@H](C(=O)N[C@H](C(=O)O)c4cc(O)cc(O)c4-c4cc3ccc4O)[C@H](O)c3ccc(c(Cl)c3)Oc3cc2cc(c3O[C@@H]2O[C@H](CO)[C@@H](O)[C@H](O)[C@H]2O[C@H]2C[C@](C)(N)[C@H](O)[C@H](C)O2)Oc2ccc(cc2Cl)[C@H]1O [vancomycin] | ≥ 640 µg/mL | ≥ 640 µg/mL | 4 µg/mL (≈ 2.76 µM) | 0.5 µg/mL (≈ 0.345 µM) | no relevant hemolytic activity | – | – | – | – | – |
| CC(C)C[C@H](C(=O)N[C@H]1C(=O)N[C@@H](CC(N)=O)C(=O)N[C@H]2C(=O)N[C@H]3C(=O)N[C@H](C(=O)N[C@H](C(=O)O)c4cc(O)cc(O)c4-c4cc3ccc4O)[C@H](O)c3ccc(c(Cl)c3)Oc3cc2cc(c3O[C@@H]2O[C@H](CO)[C@@H](O)[C@H](O)[C@H]2O[C@H]2C[C@](C)(N)[C@H](O)[C@H](C)O2)Oc2ccc(cc2Cl)[C@H]1O)N(C)C(=O)C1CCC(CN2C(=O)CC(SC[C@H](NC(=O)[C@H](CCCNC(=N)N)NC(=O)[C@H](CCCNC(=N)N)NC(=O)[C@H](CCCNC(=N)N)NC(=O)[C@H](CCCNC(=N)N)NC(=O)[C@H](CCCNC(=N)N)NC(=O)[C@@H](N)CCCNC(=N)N)C(N)=O)C2=O)CC1 (some centres unmarked) [FU002] | – | – | – | – | no relevant hemolytic activity | ≥ 640 µg/mL | ≥ 640 µg/mL | 4 µg/mL (≈ 1.47 µM) | 1 µg/mL | no resistance development was observed |
